Measurements as given in patent US20230160018A1, “CRYBETAB2 PREDICTS POOR BREAST CANCER OUTCOME AND SENSITIZES TUMORS TO NUCLEOLIN AND CDK INHIBITION” (The Johns Hopkins University, priority 2020, published 2023).

System: MCF10AT1-vector tumors
Experiment: MCF10AT1-vector (CRYβB2-lacking) xenograft tumor growth in NSG mice
Type: in vivo
Settings: palbociclib 50 mg/kg oral, 5 days/week, 2 weeks; tumors lack CRYβB2 expression

CC(=O)c1c(C)c2cnc(Nc3ccc(N4CCNCC4)cn3)nc2n(C2CCCC2)c1=O [palbociclib] was tested, and the tumor size was “no effect”.
